Values belong to the compound of their own block, whether it stands above or below them.
Key:
panel of 32 bromodomains = conditions: 1 μM concentration
bromodomain of TRIM24 = target: T1, bromodomain of TRIM24 (Homo sapiens, UniProt O15164); test: AlphaScreen biochemical bromodomain-H3K23; format: binding; conditions: from TRIM24 IC50
T1 sequence (O15164 899-1004 limits assumed): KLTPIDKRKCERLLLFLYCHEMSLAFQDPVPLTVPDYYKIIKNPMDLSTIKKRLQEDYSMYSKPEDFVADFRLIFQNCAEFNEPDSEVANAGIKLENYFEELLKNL

[1] = CACO-2 permeability assay
TRIM24(PHD-bromo) = target: T2, TRIM24(PHD-bromo) (Homo sapiens, UniProt O15164); conditions: TRIM24 AlphaLisa assay in HeLa cells, in words
T2 sequence (O15164 824-1006 limits assumed): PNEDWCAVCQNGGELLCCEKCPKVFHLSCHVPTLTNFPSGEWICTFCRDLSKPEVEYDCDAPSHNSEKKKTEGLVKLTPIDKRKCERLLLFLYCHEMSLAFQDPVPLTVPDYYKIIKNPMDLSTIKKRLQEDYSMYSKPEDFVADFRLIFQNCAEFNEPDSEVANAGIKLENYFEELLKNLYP

SMILES: CCCOc1cc(OCCCCN(C)C)cc(Oc2cc3c(cc2NS(=O)(=O)c2ccc(OC)c(OC)c2)n(C)c(=O)n3C)c1 [Compound 8i, N-(6-{3-[4-(dimethylamino)butoxy]-5-propoxyphenoxy}-1,3-dimethyl-2-oxo-2,3-dihydro-1H-1,3-benzodiazol-5-yl)-3,4-dimethoxybenzene-1-sulfonamide]
- interactions against 26 other bromodomains (panel of 32 bromodomains): No interactions were detected

SMILES: Cn1c(=O)n(C)c2cc(NS(=O)(=O)c3ccc(C4CCCCC4)cc3)ccc21 [Compound 5e, 4-cyclohexyl-N-(1,3-dimethyl-2-oxo-2,3-dihydro-1H-1,3-benzodiazol-5-yl)benzene-1-sulfonamide]
- ligand efficiency (LE) (bromodomain of TRIM24): 0.28

SMILES: Cc1nc(-c2ccc3c(c2)CC(=O)N3C)cs1 [Compound 1]
- ligand efficiency (LE) (bromodomain of TRIM24): 0.41

SMILES: Cn1cnc(S(=O)(=O)Nc2cc3c(cc2Oc2ccc(OCc4ccccc4)cc2)n(C)c(=O)n3C)c1 [Compound 6, N-{6-[4-(benzyloxy)phenoxy]-1,3-dimethyl-2-oxo-2,3-dihydro-1H-1,3-benzodiazol-5-yl}-1-methyl-1H-imidazole-4-sulfonamide]
- cellular activity (TRIM24(PHD-bromo)): no cellular activity

Continued, values first:

- ligand efficiency (LE) (bromodomain of TRIM24): 0.23
- CACO-2 flux from the apical to basolateral side (Papp) [1]: 21 Papp×10^−6 cm·s^−1
SMILES: COc1ccc(S(=O)(=O)Nc2cc3c(cc2Oc2cccc(OCc4ccccc4)c2)n(C)c(=O)n3C)cc1OC [Compound 7b, N-{6-[3-(benzyloxy)phenoxy]-1,3-dimethyl-2-oxo-2,3-dihydro-1H-1,3-benzodiazol-5-yl}-3,4-dimethoxybenzene-1-sulfonamide]

- cellular activity (TRIM24(PHD-bromo)): no cellular activity
SMILES: CC(C)COc1cccc(Oc2ccc3c(c2)n(C)c(=O)n3C)c1 [Compound 7j, 1,3-dimethyl-5-[3-(2-methylpropoxy)phenoxy]-2,3-dihydro-1H-1,3-benzodiazol-2-one]

- ligand efficiency (LE) (bromodomain of TRIM24): 0.26
SMILES: COc1ccc(Oc2cc3c(cc2NS(=O)(=O)c2ccccc2)n(C)c(=O)n3C)cc1 [Compound 5g]

- ligand efficiency (LE) (bromodomain of TRIM24): 0.27
SMILES: CCCOc1cccc(Oc2cc3c(cc2NS(=O)(=O)c2ccc(OC)c(OC)c2)n(C)c(=O)n3C)c1 [Compound 7e, N-[1,3-dimethyl-2-oxo-6-(3-propoxyphenoxy)-2,3-dihydro-1H-1,3-benzodiazol-5-yl]-3,4-dimethoxybenzene-1-sulfonamide]

Source: PMC4755933 (Journal of medicinal chemistry, 2015)
